Results on 33 compounds are retold here after ChEMBL document CHEMBL3997802, “Design, Synthesis, and Evaluation of Isaindigotone Derivatives To Downregulate c-myc Transcription via Disrupting the Interaction of NM23-H2 with G-Quadruplex” (J Med Chem, 2017).

Molecules are shown by their SMILES. Activity calls are given as the source filed them. No cut-off for these calls is given here.

Assay [1] is filed under the species Homo sapiens. Nature of the assay: Inhibition of NM23-H2 binding to c-Myc promoter DNA in human SiHa cell nuclear extract at 1.3 to 2.6 uM after 4 days by ChIP analysis.
Assay [2] is described as follows: Inhibition of 5'-biotin-labeled c-Myc Pu18 G-quadruplex DNA (unknown origin) interaction with His-tagged NM23-H2 assessed as ratio of Kd for NM23-H2-DNA complex in presence of compound to Kd for […]-DNA complex in absence of compound at 20 uM preincubated with NM23-H2 for 1 hr followed by addition of DNA measured after overnight incubation by ELISA. (In an ELISA, binding on a coated surface is turned into a signal by an enzyme label.)

Assay [3] is described as follows: Stabilization of 5'-FAM/3'-TAMRA labeled c-Myc Pu18 G-quadruplex DNA (unknown origin) assessed as change in melting temperature at 1 uM after overnight incubation by FRET assay.
Assay [4] has as its target T1, Nucleoside diphosphate kinase B (Homo sapiens, UniProt P22392). Briefly: Binding affinity to NT647-labeled His-tagged NM23-H2 (unknown origin) expressed in Escherichia coli BL21(DE3) up to 500 uM after 30 mins by microscale thermophoresis method. A general note: In MST a laser heats a spot of the sample, and binding alters the fluorescence response.
A short description of assay [5]: Inhibition of 5'-biotin-labeled c-Myc Pu18 G-quadruplex DNA (unknown origin) interaction with His-tagged NM23-H2 at 20 uM preincubated with NM23-H2 for 1 hr followed by addition of DNA measured after overnight incubation by ELISA.
A short description of assay [6]: Inhibition of thiazole orange binding to c-Myc Pu27 G-quadruplex DNA (unknown origin) at 10 uM after 30 secs by fluorescence spectrophotometric method.
Assay [7] in a line: Inhibition of thiazole orange binding to c-Myc Pu18 G-quadruplex DNA (unknown origin) at 10 uM after 30 secs by fluorescence spectrophotometric method.
The species entered for assay [8] is Homo sapiens. Nature of the assay: Inhibition of NM23-H2 binding to c-Myc promoter DNA in human SiHa cell nuclear extract at 4.85 to 9.7 uM after 4 days by ChIP analysis.
Assay [9] addresses T1, Nucleoside diphosphate kinase B. Nature of the assay: Binding affinity to NT647-labeled His-tagged NM23-H2 (unknown origin) expressed in Escherichia coli BL21(DE3) after 30 mins by microscale thermophoresis method.

T1 sequence (P22392 whole entry): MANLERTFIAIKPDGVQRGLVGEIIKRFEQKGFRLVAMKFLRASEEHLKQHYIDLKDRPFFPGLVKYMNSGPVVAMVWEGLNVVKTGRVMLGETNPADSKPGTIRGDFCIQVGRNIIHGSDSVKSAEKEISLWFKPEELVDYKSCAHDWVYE

Turning to `O=C(CCN1CCCC1)Nc1ccc(/C=C2\CCn3c2nc2cc(N4CCCCC4)c(F)cc2c3=O)cc1`, in the assay filed under Homo sapiens [1], the inhibition result is “inactive”. Also, in [2], the Ratio was 1.4 to 4.3. As to `CCN(CC)CCC(=O)Nc1ccc(/C=C2\CCn3c2nc2cc(N4CCCCC4)c(F)cc2c3=O)cc1`, the Ratio in [2] is 1.4 to 4.3. Regarding `O=C(CCN1CCCC1)Nc1ccc(/C=C2\CCn3c2nc2cc(NC(=O)CCN4CCCC4)ccc2c3=O)cc1`, the ΔTm (usually the change in melting temperature against a reference sample) in [3] stood at 8.5 °C. Further, the result in assay [4] was inactive. Besides, the Ratio in assay [2] is 2.5. In the case of `O=C(NCCN1CCCC1)c1ccc(/C=C2\CCn3c2nc2cc(NCCCN4CCCC4)c(F)cc2c3=O)cc1`, the inhibition entry in assay [5], in assay [6] and in assay [7] was “Active” throughout. `O=C(NCCN1CCCC1)c1ccc(/C=C2\CCn3c2nc2cc(NCCN4CCCC4)c(F)cc2c3=O)cc1`: the inhibition result in assay [5], in assay [6] and in assay [7] was “Active” each time. Turning to `CN1CCN(c2cc3nc4n(c(=O)c3cc2F)CCC/C4=C\c2ccc(C(=O)NCCN3CCCCC3)cc2)CC1`, the inhibition result in assay [5] is “Active”.

For `CN1CCN(c2cc3nc4n(c(=O)c3cc2F)CCC/C4=C\c2ccc(NC(=O)CCN3CCCCC3)cc2)CC1`, in assay [5], the inhibition entry is “Active”. As for `CN1CCN(c2cc3nc4n(c(=O)c3cc2F)CC/C4=C\c2ccc(C(=O)NCCN3CCCCC3)cc2)CC1`, in [2], the Ratio is 1.4 to 4.3.

With `CN1CCN(c2cc3nc4n(c(=O)c3cc2F)CC/C4=C\c2ccc(NC(=O)CCN3CCN(CCO)CC3)cc2)CC1`, the inhibition entry in assay [5] is “Active”. In addition, the inhibition entry in the assay filed under Homo sapiens [8] is “inactive”. The dissociation constant (Kd) (usually the constant that tells how readily two partners part at equilibrium) in assay [9] was determined as 1.8 µM.

Consider `CCN(CC)CCNC(=O)c1ccc(/C=C2\CCn3c2nc2cc(NCCN4CCCC4)c(F)cc2c3=O)cc1`, for which the inhibition entry in assay [5], in assay [6] and in [7] was “Active” in each case. Take `CCN(CC)CCNC(=O)c1ccc(/C=C2\CCCn3c2nc2cc(N4CCN(C)CC4)c(F)cc2c3=O)cc1`: the inhibition result in assay [5] was “Active”. `CN(C)CCCNC(=O)c1ccc(/C=C2\CCn3c2nc2cc(N4CCN(C)CC4)c(F)cc2c3=O)cc1`: the inhibition entry in [5] was “Active”.

With `CN1CCN(c2cc3nc4n(c(=O)c3cc2F)CCC/C4=C\c2ccc(NC(=O)CCN3CCN(CCO)CC3)cc2)CC1`, the result in assay [4] was Active. With `CN(C)CCNC(=O)c1ccc(/C=C2\CCn3c2nc2cc(N4CCN(C)CC4)c(F)cc2c3=O)cc1`, the inhibition result in assay [5] was “Active”. Besides, the outcome in assay [4] was Active. Take `CCN(CC)CCC(=O)Nc1ccc(/C=C2\CCCn3c2nc2cc(N4CCN(C)CC4)c(F)cc2c3=O)cc1`: the inhibition entry in [5] was “Active”. As to `CCN(CC)CCCNC(=O)c1ccc(/C=C2\CCn3c2nc2cc(NCCN4CCCC4)c(F)cc2c3=O)cc1`, the inhibition result in [5], in assay [6] and in assay [7] was “Active” in each case. For the compound `CCN(CC)CCC(=O)Nc1ccc(/C=C2\CCn3c2nc2cc(N4CCN(C)CC4)c(F)cc2c3=O)cc1`, the Ratio in assay [2] worked out at 1.4.

`CCN(CC)CCCNC(=O)c1ccc(/C=C2\CCn3c2nc2cc(NCCCN4CCCC4)c(F)cc2c3=O)cc1`: the inhibition result in assay [5], in assay [6] and in [7] was “Active” in each case. Regarding `CN1CCN(c2cc3nc4n(c(=O)c3cc2F)CC/C4=C\c2ccc(C(=O)NCCCN3CCCC3)cc2)CC1`, the inhibition entry in assay [5] is “Active”. Same read-out and setting: as for `CCN(CC)CCCNC(=O)c1ccc(/C=C2\CCn3c2nc2cc(N4CCN(C)CC4)c(F)cc2c3=O)cc1`, the entry is “Active”.

Regarding `CN1CCN(c2cc3nc4n(c(=O)c3cc2F)CC/C4=C\c2ccc(NC(=O)CN3CCCC3)cc2)CC1`, in [4], the result was Active. On to `CN1CCN(c2cc3nc4n(c(=O)c3cc2F)CCC/C4=C\c2ccc(NC(=O)CCN3CCCC3)cc2)CC1`, for which the Ratio in assay [2] was determined as 1.3. For `CN1CCN(c2cc3nc4n(c(=O)c3cc2F)CC/C4=C\c2ccc(NC(=O)CCN3CCCC3)cc2)CC1`, the inhibition result in assay [5] was “Active”. Further, the Ratio in assay [2] worked out at 1.6. In the case of `O=C(CCN1CCCC1)Nc1ccc(/C=C2\CCCn3c2nc2cc(NC(=O)CCN4CCCC4)ccc2c3=O)cc1`, the ΔTm in [3] turned out to be 3.4 °C. Moreover, the Kd in assay [9] was determined as 22.1 µM. In addition, in [2], the Ratio was 2.4. For `O=C(NCCCN1CCCC1)c1ccc(/C=C2\CCn3c2nc2cc(NCCCN4CCCC4)c(F)cc2c3=O)cc1`, the inhibition entry in assay [5], in assay [6] and in [7] was “Active” throughout. As for `CN1CCN(c2cc3nc4n(c(=O)c3cc2F)CC/C4=C\c2ccc(NC(=O)CCN3CCCCC3)cc2)CC1`, the inhibition entry in assay [5] was “Active”. For `CN1CCN(c2cc3nc4n(c(=O)c3cc2F)CC/C4=C\c2ccc(C(=O)NCCN3CCCC3)cc2)CC1`, the inhibition result in assay [5] is “Active”.

Take `CN1CCN(c2cc3nc4n(c(=O)c3cc2F)CCC/C4=C\c2ccc(NC(=O)CN3CCN(CCO)CC3)cc2)CC1`: in [4], the outcome was Active. Further, the Ratio in assay [2] is less than 1.4.

With `CCN(CC)CCNC(=O)c1ccc(/C=C2\CCn3c2nc2cc(N4CCN(C)CC4)c(F)cc2c3=O)cc1`, the Ratio in assay [2] is 2.7. Regarding `CN1CCN(c2cc3nc4n(c(=O)c3cc2F)CC/C4=C\c2ccc(NC(=O)CN3CCN(CCO)CC3)cc2)CC1`, in assay [5], the inhibition result was “Active”. Besides, the result in [4] was Active. For `CN1CCN(c2cc3nc4n(c(=O)c3cc2F)CC/C4=C\c2ccc(C(=O)NCCCN3CCCCC3)cc2)CC1`, the inhibition result in [5] is “Active”.

With `CN1CCN(c2cc3nc4n(c(=O)c3cc2F)CCC/C4=C\c2ccc(C(=O)NCCN3CCCC3)cc2)CC1`, the inhibition result in [5] is “Active”. In the case of `O=C(CCN1CCCCC1)Nc1ccc(/C=C2\CCn3c2nc2cc(N4CCCCC4)c(F)cc2c3=O)cc1`, the Ratio in assay [2] lay in the range of 1.4 to 4.3.
